Laboratory results as given in US7161032B2, “Sulfonamide derivatives, insecticides for agricultural and horticultural use, and usage thereof” (Nihon Nohyaku Co., Ltd., priority 2002, dated 2007).

Columns and labels:
Assay type in all cases: in vivo
[1] = tested on: Diamond Back Moth (Plutella xylostella); assay: Insecticidal effect on diamond back moth (Test Example 1): egg-bearing Chinese cabbage seedling immersed in 50 ppm liquid chemical
Procedure: Adult diamond back moths were released and allowed to oviposit on a Chinese cabbage seedling. Two days after the release, the seedling having the eggs deposited thereon was immersed for about 30 seconds in a liquid chemical prepared by diluting a preparation containing each compound listed in Table 1 or 2 as an active ingredient to adjust the concentration to 50 ppm. After air-dryness, it was allowed to stand in a room thermostated at 25° C. Six days after the immersion, the hatched insects were counted. The mortality was calculated according to the following equation and the insecticidal effect was judged according to the criterion shown below. The test was carried out with triplicate groups of 10 insects. [formula]

[2] = tested on: Common Cutworm (Spodoptera litura); assay: Insecticidal effect on common cutworm (Test Example 2): cabbage leaf piece immersed in 50 ppm liquid chemical; settings: common cutworm (Spodoptera litura) second-instar larvae, 8 days after inoculation, 25° C.
Procedure: A piece of cabbage leaf (cultivar: Shikidori) was immersed for about 30 seconds in a liquid chemical prepared by diluting a preparation containing each compound listed in Table 1 or 2 as an active ingredient to adjust the concentration to 50 ppm. After air-dryness, it was placed in a plastic Petri dish with a diameter of 9 cm and inoculated with second-instar larvae of common cutworm, after which the dish was closed and then allowed to stand in a room thermostated at 25° C. Eight days after the inoculation, the dead and alive were counted. The mortality was calculated according to the following equation and the insecticidal effect was judged according to the criterion shown in Test Example 1. The test was carried out with triplicate groups of 10 insects. [formula]

[3] = tested on: Smaller Tea Tortrix (Adoxophyes sp.); assay: Insecticidal effect on smaller tea tortrix (Test Example 3): tea leaves immersed in 50 ppm liquid chemical; settings: smaller tea tortrix (Adoxophyes sp.) larvae, 8 days after inoculation, 25° C., humidity 70%
Procedure: Tea leaves were immersed for about 30 seconds in a liquid chemical prepared by diluting a preparation containing each compound listed in Table 1 or 2 as an active ingredient to adjust the concentration to 50 ppm. After air-dryness, the tea leaves were placed in a plastic Petri dish with a diameter of 9 cm and inoculated with larvae of smaller tea tortrix, after which the dish was allowed to stand in a room thermostated at 25° C. and having a humidity of 70%. Eight days after the inoculation, the dead and alive were counted and the insecticidal effect was judged according to the criterion shown in Test Example 1. The test was carried out with triplicate groups of 10 insects.

Structure (SMILES): Cc1cc(C(F)(C(F)(F)F)C(F)(F)F)ccc1NC(=O)c1cccc(I)c1C(=O)NC(C)CS(=O)(=O)N1CCC(=O)CC1 (stereo not drawn) [1-67]
- Insecticidal effect (mortality grade), Test Example 1 [1]: A (Mortality 100%)
- Insecticidal effect (mortality grade), Test Example 2 [2]: E (Mortality less than 50%)
- Insecticidal effect (mortality grade), Test Example 3 [3]: E (Mortality less than 50%)

Structure (SMILES): Cc1cc(C(F)(C(F)(F)F)C(F)(F)F)ccc1NC(=O)c1cccc(Br)c1C(=O)NC(C)CS(=O)(=O)N(C)C (stereo not drawn) [1-213]
- Insecticidal effect (mortality grade), Test Example 1 [1]: A (Mortality 100%)
- Insecticidal effect (mortality grade), Test Example 2 [2]: A (Mortality 100%)
- Insecticidal effect (mortality grade), Test Example 3 [3]: A (Mortality 100%)

Structure (SMILES): Cc1cc(C(F)(C(F)(F)F)C(F)(F)F)ccc1NC(=O)c1cccc(I)c1C(=O)NC(C)CS(N)(=O)=O (stereo not drawn) [1-1]
- Insecticidal effect (mortality grade), Test Example 1 [1]: A (Mortality 100%)
- Insecticidal effect (mortality grade), Test Example 2 [2]: A (Mortality 100%)
- Insecticidal effect (mortality grade), Test Example 3 [3]: A (Mortality 100%)

Structure (SMILES): CCN(CC)S(=O)(=O)CC(C)(C)NC(=O)c1c(I)cccc1C(=O)Nc1ccc(OC(F)(F)F)cc1C [1-277]
- Insecticidal effect (mortality grade), Test Example 1 [1]: A (Mortality 100%)
- Insecticidal effect (mortality grade), Test Example 2 [2]: A (Mortality 100%)
- Insecticidal effect (mortality grade), Test Example 3 [3]: A (Mortality 100%)

Structure (SMILES): Cc1cc(C(F)(C(F)(F)F)C(F)(F)F)ccc1NC(=O)c1cccc(I)c1C(=O)NC(C)CS(=O)(=O)NCc1ccc(C#N)cc1 (stereo not drawn) [1-37]
- Insecticidal effect (mortality grade), Test Example 1 [1]: A (Mortality 100%)
- Insecticidal effect (mortality grade), Test Example 2 [2]: A (Mortality 100%)
- Insecticidal effect (mortality grade), Test Example 3 [3]: A (Mortality 100%)

Structure (SMILES): Cc1cc(C(F)(C(F)(F)F)C(F)(F)F)ccc1NC(=O)c1cccc(I)c1C(=O)NC(C)(C)CS(=O)(=O)NCc1ccccc1 [1-184]
- Insecticidal effect (mortality grade), Test Example 1 [1]: A (Mortality 100%)
- Insecticidal effect (mortality grade), Test Example 2 [2]: A (Mortality 100%)
- Insecticidal effect (mortality grade), Test Example 3 [3]: A (Mortality 100%)

Structure (SMILES): CCCCNS(=O)(=O)CC(C)NC(=O)c1c(Br)cccc1C(=O)Nc1ccc(C(F)(C(F)(F)F)C(F)(F)F)cc1C (stereo not drawn) [1-217]
- Insecticidal effect (mortality grade), Test Example 1 [1]: A (Mortality 100%)
- Insecticidal effect (mortality grade), Test Example 2 [2]: A (Mortality 100%)
- Insecticidal effect (mortality grade), Test Example 3 [3]: A (Mortality 100%)

Structure (SMILES): Cc1cc(C(C(F)(F)F)C(F)(F)F)ccc1NC(=O)c1cccc(I)c1C(=O)NC(C)CS(N)(=O)=O (stereo not drawn) [1-342]
- Insecticidal effect (mortality grade), Test Example 1 [1]: A (Mortality 100%)
- Insecticidal effect (mortality grade), Test Example 2 [2]: A (Mortality 100%)
- Insecticidal effect (mortality grade), Test Example 3 [3]: A (Mortality 100%)

Structure (SMILES): CCN(CC)S(=O)(=O)CC(C)NC(=O)c1c(I)cccc1C(=O)Nc1ccc(Cl)c(Cl)c1Cl (stereo not drawn) [1-267]
- Insecticidal effect (mortality grade), Test Example 1 [1]: A (Mortality 100%)
- Insecticidal effect (mortality grade), Test Example 2 [2]: C (Mortality 89–80%)
- Insecticidal effect (mortality grade), Test Example 3 [3]: E (Mortality less than 50%)

Structure (SMILES): Cc1cc(C(F)(C(F)(F)F)C(F)(F)F)ccc1NC(=O)c1cccc(I)c1C(=O)NC(C)CS(=O)(=O)NCc1ccccc1[N+](=O)[O-] (stereo not drawn) [1-28]
- Insecticidal effect (mortality grade), Test Example 1 [1]: A (Mortality 100%)
- Insecticidal effect (mortality grade), Test Example 2 [2]: A (Mortality 100%)
- Insecticidal effect (mortality grade), Test Example 3 [3]: A (Mortality 100%)

Structure (SMILES): Cc1cc(C(F)(C(F)(F)F)C(F)(F)F)ccc1NC(=O)c1cccc(I)c1C(=O)NC(C)CS(=O)(=O)NCCc1ccccc1 (stereo not drawn) [1-47]
- Insecticidal effect (mortality grade), Test Example 1 [1]: A (Mortality 100%)
- Insecticidal effect (mortality grade), Test Example 2 [2]: A (Mortality 100%)
- Insecticidal effect (mortality grade), Test Example 3 [3]: A (Mortality 100%)

Structure (SMILES): Cc1cc(C(F)(C(F)(F)F)C(F)(F)F)ccc1NC(=O)c1cccc(I)c1C(=O)NC(C)CS(=O)(=O)NCc1ccccn1 (stereo not drawn) [1-39]
- Insecticidal effect (mortality grade), Test Example 1 [1]: A (Mortality 100%)
- Insecticidal effect (mortality grade), Test Example 2 [2]: A (Mortality 100%)
- Insecticidal effect (mortality grade), Test Example 3 [3]: A (Mortality 100%)

Structure (SMILES): CC[S+]([O-])CCNS(=O)(=O)CC(C)(C)NC(=O)c1c(I)cccc1C(=O)Nc1ccc(C(F)(C(F)(F)F)C(F)(F)F)cc1C (stereo not drawn) [1-85]
- Insecticidal effect (mortality grade), Test Example 1 [1]: A (Mortality 100%)
- Insecticidal effect (mortality grade), Test Example 2 [2]: A (Mortality 100%)
- Insecticidal effect (mortality grade), Test Example 3 [3]: A (Mortality 100%)
